In ChEMBL document CHEMBL1151802, “Calyciphyllines N-P, alkaloids from Daphniphyllum calycinum” (J Nat Prod, 2009):

What was measured:
Format in all cases: functional, cell-based
P388 = experiment: Cytotoxicity against mouse P388 cells
L1210 = experiment: Cytotoxicity against mouse L1210 cells
KB = experiment: Cytotoxicity against human KB cells

| Compound | IC50 (P388) [µg/mL] | IC50 (L1210) [µg/mL] | IC50 (KB) [µg/mL] |
| --- | --- | --- | --- |
| COC(=O)[C@@H]1C[C@]23C4=NC[C@@H](C)[C@]45CC[C@@]2(C)[C@H](CCC2=C3[C@@H]1CC2)[C@H]5O [CALYCIPHYLLINE N] | > 55 | > 5 | > 5 |
| COC(=O)CC[C@@]12[C@@H]3NC4C([C@@H](O)C[C@@]45CCC[C@H]51)[C@]2(C)CC[C@@H]3C(C)C [CALYCIPHYLLINE O] | > 55 | > 5 | > 5 |
